What was measured:
[1] = Stability of probes A and B in human plasma (fluorescence over time); type: in vitro ADME; conditions: same concentration of A and B, FIG. 1
Description: FIG. 1: Evolution of intensity of fluorescence over time obtained in human plasma for the same concentration of compounds A and B.
The stability of compounds A (according to the invention) and B (reference compound) below was studied in different biological conditions.

BNL CL.2 cells = test: Stability of probes A and B in cellulo (cytometry, microscopy); type: cell-based, mouse; conditions: 1 μM, 2, 6 and 24 hours, FIG. 2
Method: FIG. 2a-2c: a) Evolution of intensity of fluorescence over time obtained in cellulo for the same concentration of compounds A and B. • b) Intensity ratio compound B/compound A at different times in cellulo. • c) Microscope pictures of cells treated with compounds A and B, superimposition of TAMRA and Hoechst labeling. White spots around nucleus correspond to hydrolyzed probe. A—arylpropiolonitrile probe, B—maleimide probe.
Normal liver BNL CL.2 cells from mouse were grown in Dulbecco's MEM medium with 1 g/l glucose (Eurobio, Les Ulis, France) supplemented with 10% fetal bovine serum (Perbio, Brebieres, France), 2 mM L-Glutamine, 100 U/mL penicillin, 100 μg/mL streptomycin (Eurobio). Cells were maintained in a 5% CO2 humidified atmosphere at 37° C.
The required amounts of probes A and B were diluted up to 300 μl in MEM complete medium to give final concentration of 1 μM and then added onto the cells. A 5 μg/ml of Hoechst 118 solution was used as a nuclear marker.
The day before experiment, BNL CL.2 cells were seeded in 96-plates (Greiner Bio One, Frickenhausen, Germany) at 2.0×10^4 cells/well in Dulbecco's MEM complete medium. […] After washing with PBS (Eurobio), 5 min incubation with 40 μl trypsine, and addition of 160 μl of PBS EDTA 5 mM, cells were analyzed by flow cytometry on a PCA-96 Guava cytometer (Guava Technologies Merck Millipore, Billerica, Mass., USA) with a green laser.

[2] = Hydrolytic stability in PBS, HPLC monitoring; type: physicochemical; conditions: PBS (1×, pH 7.6), 1 mM, 25° C.
Method: FIG. 3a-3b: HPLC monitoring of the hydrolysis of phenylmaleimide (2) in PBS (1×, pH 7.6) at 1 mM concentration at 25° C.; the peaks correspond, from the earliest to the latest, to
[drawing 5] conversion was monitored by disappearance of the starting material (a). Pseudo first order rate constant for the reaction was determined by plotting the ln([phenylmaleimide]) versus time and analyzing by linear regression. The constant corresponds to the absolute value of determined slope (b).
FIG. 4: HPLC monitoring of hydrolytic stability of N-(4-(cyanoethynyl)phenyl)acetamide (pNHAc-APN, 11) in PBS (1×, pH 7.6) at 1 mM concentration at 25° C. Conversion was monitored by disappearance of the starting material; the peaks correspond, from the earliest to the latest, to
To a vial containing 980 μL of PBS (1×, pH 7.6), were subsequently added 10 μL of a stock solution of benzamide and 10 μL of a stock solution of electrophile (phenylmaleimide 1 or
[drawing 112] 11) to give final concentration of 1 mM (both internal standard and electrophile). Aliquots of the reaction mixture (50 μL) were analyzed by HPLC for 5 hours of hydrolysis (injection every 30 min). Areas under the peaks of the starting materials and hydrolysis products were normalized according to the area of the peak of the internal standard.

[3] = Selectivity screening of electrophiles on amino acid benzylamides, HPLC; conditions: in 1 hour in PBS (1×, pH 7.6) in presence of the electrophile, 1 mM reagents
Method: (§1) Screening for selectivity was done on benzylamides of non-protected amino acids. 100 mM stock solutions of benzylamides of amino acids (in form of TFA salts) and electrophiles (phenylpropiolonitrile and phenylmaleimide) were prepared in DMSO and stored at −20° C. A 100 mM stock solution of benzamide (used as an internal standard) was prepared in distilled water and stocked at −20° C. Analyses of reaction mixtures were conducted with Shimadzu LC with SunFire™ C18 5 μM 4.6×150 mm column (Waters). HPLC parameters were as follows: flow rate 1 mL/min, gradient from 5 to 95% of mobile phase B from 0 to 20 min, followed by 5 min at 95% of mobile phase and post time of 5 min. Mobile phase A was 0.05% TFA in water (mQ) (v/v), and mobile phase B was acetonitrile (HPLC grade). Data were analyzed using Shimadzu analysis software. Signals were normalized according to the area of the peak of the internal standard (benzamide). Areas under the peaks of the amino acid benzylamides were used to calculate their conversion during reaction.
10 μL of the stock solution of amino acid benzamide and 2.5 μL of the stock solution of benzamide were added to a vial containing 977.5 μL of PBS (1×, pH 7.6). The solution was stirred and 10 μL of the stock solution of electrophile were added to give 1 mM final concentrations of reagents and 0.25 mM concentration of benzamide. Aliquots of the reaction mixture (50 μL) were analyzed by HPLC for 1 hour of hydrolysis (injections at 0, 30 and 60 min). Areas under the peaks of the starting materials and hydrolysis products were normalized according to the area of peak of the internal standard. In case of phenylpropiolonitrile, none of amino acid models gave more than 1.6% conversion (see table 3 below). […] Masses of corresponding adducts were detected by mass spectrometry (ESI-LCMS) in some cases (shown in bold, Table 4).

[4] = Selectivity screening of electrophiles, whole panel of amino acid models; conditions: 1 hour, PBS (1×, pH 7.6), 1 mM reagents
Method: as §1, with “Areas under the peaks of the amino acid benzylamides were used to calculate their conversion during reaction.” left out
10 μL of the stock solution of amino acid benzamide and 2.5 μL of the stock solution of benzamide were added to a vial containing 977.5 μL of PBS (1×, pH 7.6). […] Aliquots of the reaction mixture (50 μL) were analyzed by HPLC for 1 hour of hydrolysis (injections at 0, 30 and 60 min). […] Masses of corresponding adducts were detected by mass spectrometry (ESI-LCMS) in some cases (shown in bold, Table 4).

| SMILES | stability in human plasma (in words) [1] | stability in cellulo (in words) (BNL CL.2 cells) | kobs (pseudo first order rate constant of hydrolysis) [2] [s⁻¹] | hydrolysis (in words) ([2]; up to 5 hours of monitoring) | Conversion of AlaNHBn (7c) [3] [%] | Conversion of ArgNHBn (7k) [3] [%] | Conversion of AspNHBn (7l) [3] [%] | Conversion of CysNHBn (7a) [3] [%] | Conversion of GlnNHBn (7i) [3] [%] | Conversion of GlyNHBn (7b) [3] [%] | Conversion of HisNHBn (7h) [3] [%] | Conversion of MetNHBn (7f) [3] [%] | Conversion of SerNHBn (7e) [3] [%] | Conversion of TrpNHBn (7j) [3] [%] | Conversion of TyrNHBn (7g) [3] [%] | Conversion of ValNHBn (7d) [3] [%] | highest conversion among the amino acid models other than cysteine [4] |
| --- | --- | --- | --- | --- | --- | --- | --- | --- | --- | --- | --- | --- | --- | --- | --- | --- | --- |
| COc1cc(/N=N/c2ccc([N+](=O)[O-])cc2)c(OC)cc1/N=N/c1ccc(N(C)CCCC(=O)NCCSC(=CC#N)c2ccc(NC(=O)CCCNC(=O)c3ccc(-c4c5ccc(=[N+](C)C)cc-5oc5cc(N(C)C)ccc45)c(C(=O)[O-])c3)cc2)cc1 [A] | far more stable than compound B in human plasma | far more stable than compound B in cellulo |  |  |  |  |  |  |  |  |  |  |  |  |  |  |  |
| O=C1C=CC(=O)N1c1ccccc1 [phenylmaleimide, reference compound] |  |  | 7e-05 | Noticeable hydrolysis | 0.2 | 2.9 | 1.3 | 100 | 1.7 | 3.3 | 8.5 | 1.9 | 2.8 | 1.0 | 2.4 | 0.9 | up to 8.5% |

Source: patent publication US9663454B2, “3-aryl propiolonitrile compounds for thiol labeling” (Universite de Strasbourg, priority 2013, dated 2017)
